Laboratory results reported in patent publication US20030077222A1, “Individualization of therapy with analgesics” (McGill University, priority 2001, published 2003).
pIC50: −log10 of the molar value. Where two headings read alike, the source gives them in different places. Marks after values point to notes of the source that are not given here.

Tests used:
[1] = test system: AAMU-Ab; assay: Competitive antigen ELISA, cross-reactivity of AAMU-Ab; format: binding, rabbit; settings: for % Cross-Reaction AAMU-Ab: competitive antigen ELISA, 0 = absence of inhibition or inhibition no higher than 40% at highest concentration tested (5×10^−3 M)
Protocol: (§1) Four mature females New Zealand white rabbits (Charles River Canada, St-Constant, Que., Canada) are used for antibody production. The protocol employed in this study was approved by the McGill University Animal Care Committee in accordance with the guidelines from the Canadian Council on Animal Care. Antibodies of the present invention may be monoclonal or polyclonal antibodies.
(§2) A 0.5 mL aliquot of the emulsion ([…] of antigen) is injected per rabbit intramuscularly or subcutaneously. Rabbits are subsequently boosted at intervals of three weeks with […] of antigen emulsified in incomplete Freund's adjuvant. […] Antisera are stored at 4° C. in the presence of 0.01% sodium azide.
(§3) Buffers and water without additives are filtered through millipore filters and kept for 1 week. BSA, antibodies, Tween™ 20 and horse radish peroxidase conjugates are added to these buffers and water just prior to use. Urine samples are usually collected 4 hours after drinking a cup of coffee (instant or brewed with approximately 100 mg of caffeine per cup) and stored at −80° C. The urine samples are diluted 10 times with sodium phosphate buffer (620 mosm, pH 7.50) and are subsequently diluted with water to give concentrations of AAMU and 1X no higher than 3×10^−6 M in the ELISA. All the pipettings are done with an eight-channel pipette, except those of the antibody and sample solutions. Starting with the last well, 100 μL of a carbonate buffer (100 mM, pH 9.6) containing 2.5 μg mL−^1 antibodies are added to each well. After 90 min. at room temperature, the wells are washed three times with […] of TPB: isotonic sodium phosphate buffer (310 mosm, pH 7.50) containing 0.05% Tween™ 20.
(§4) After the initial wash, unoccupied sites are blocked by incubation for 90 min. at room temperature with 100 μL TBP containing 3% BSA. The wells are washed four times with 100 μL TPB. […] The microplate is gently shaken with an orbital shaker at room temperature for 3-4 hours. The wells are washed three times with 100 μL TPB containing 1% BSA and three times with water containing 0.05% Tween™ 20. To the washed plate is added 150 μL of a substrate buffer composed of citric acid (25 mM) and sodium phosphate dibasic buffer (50 mM, pH 5.0) containing 0.06% hydrogen peroxide and 0.04% o-phenylenediamine hydrochloride.
(§5) Buffers and water without additives were filtered through millipore filters and kept for 1 week. BSA, antibodies, Tween™ 20 and horse radish peroxidase conjugates were added to these buffers and water just prior to use. Urine samples were usually collected 4 hours after drinking a cup of coffee (instant or brewed with approximately 100 mg of caffeine per cup) and stored at −80° C. They were diluted 10 times with sodium phosphate buffer (620 mosm, pH 7.50) and were subsequently diluted with water to give concentrations of AAMU and 1X no higher than 3×10^−6 M in the ELISA. All the pipettings were done with an eight-channel pipette, except those of the antibody and sample solutions. Starting with the last well, 100 μL of a carbonate buffer (100 mM, pH 9.6) containing 2.5 μg mL−^1 antibodies was pipetted. After 90 min. at room temperature, the wells were washed three times with 100 μL of TPB: isotonic sodium phosphate buffer (310 mosm, pH 7.50) containing 0.05% Tween™ 20.
(§6) After the initial wash, unoccupied sites were blocked by incubation for 90 min. at room temperature with 100 μL TBP containing 3% BSA. The wells were washed four times with 100 μL TPB. […] The microplate was gently shaken with an orbital shaker at room temperature for 3-4 hours. The wells were washed three times with […] TPB containing 1% BSA and three times with water containing 0.05% Tween™ 20. To the washed plate was added 150 μL of a substrate buffer composed of citric acid (25 mM) and sodium phosphate dibasic buffer (50 mM, pH 5.0) containing 0.06% hydrogen peroxide and 0.04% o-phenylenediamine hydrochloride.

[2] = test system: 1X-Ab; assay: Competitive antigen ELISA, cross-reactivity of 1X-Ab; format: binding, rabbit; settings: for % Cross-Reaction 1X-Ab: competitive antigen ELISA, 0 = absence of inhibition or inhibition no higher than 40% at highest concentration tested (5×10^−3 M)
Protocol: as §1, §2, §3, §4, §5, §6

[3] = cited from earlier work
[4] = cited from earlier work; remark: listed apart in the source

Structure (SMILES)	% Cross-Reaction AAMU-Ab [1]	% Cross-Reaction 1X-Ab [2] [%]	further results
Cn1c(=O)c2c(ncn2C)n(C)c1=O [1,3,7-Trimethyl Xanthine (Caffeine), 1,3,7-Trimethyl Xanthine]	0%	0	–
Cn1c(=O)c2[nH]cnc2n(C)c1=O [1,3-Dimethyl Xanthine (Theophylline), 1,3-Dimethyl Xanthine]	0%	0.2	–
Cn1c(=O)[nH]c2ncn(C)c2c1=O [1,7-Dimethyl Xanthine (Paraxanthine), 1,7-Dimethyl Xanthine]	0%	0.5	–
Cn1c(=O)[nH]c2[nH]c(=O)n(C)c2c1=O [1,7-Dimethyluric acid]	0%	0	–
Cn1c(=O)[nH]c2nc[nH]c2c1=O [1-Methyl Xanthine (1X), 1-Methyl Xanthine]	0%	100	pIC50 ([2]; read-out: concentration required for 50% inhibition in the competitive antigen ELISA, 1X-Ab): 5.00
Cn1c(=O)[nH]c2[nH]c(=O)[nH]c2c1=O [1-Methyluric acid]	0%	11	–
Cn1cnc2c1c(=O)[nH]c(=O)n2C [3,7-Dimethyl Xanthine (Theobromine), 3,7-Dimethyl Xanthine]	0%	0	–
Cn1c(=O)[nH]c(=O)c2[nH]cnc21 [3-Methyl Xanthine]	0%	0	–
CC(=O)Nc1c(N)n(C)c(=O)n(C)c1=O [5-Acetamino-6-amino-1,3-dimethyluracil]	0%	0	–
CC(=O)Nc1c(N)n(C)c(=O)[nH]c1=O [5-Acetamino-6-amino-1-methyluracil]	100%	0	pIC50 ([1]; read-out: concentration required for 50% inhibition in the competitive antigen ELISA, AAMU-Ab): 5.82
CC(=O)Nc1c(N)[nH]c(=O)[nH]c1=O [5-Acetamino-6-amino-uracil]	0.6%	0	–
Cn1cnc2[nH]c(=O)[nH]c(=O)c21 [7-Methyl Xanthine]	0%	0	–
Cc1nc2[nH]c(=O)[nH]c(=O)c2[nH]1 [8-Methyl Xanthine]	0%	0	–
Nc1nc2nc[nH]c2c(=O)[nH]1 [Guanine]	0%	0	–
O=c1[nH]cnc2nc[nH]c12 [Hypoxanthine]	0%	0	–
O=c1cc[nH]c(=O)[nH]1 [Uracil]	0%	0	–
O=c1[nH]c(=O)c2[nH]c(=O)[nH]c2[nH]1 [Uric acid]	0%	0	–
O=c1[nH]c(=O)c2[nH]cnc2[nH]1 [Xanthine]	0^a %	0	–
Nc1ccc(S(=O)(=O)c2ccc(N)cc2)cc1 [dapsone]	–	–	adverse reactions to dapsone ([3]; fast acetylators): 17%; adverse reactions to dapsone ([3]; slow acetylators): 46%
COc1cccc(C2(O)CCCCC2CN(C)C)c1 (stereo not drawn) [tramadol]	–	–	experimental pain model procedures with statistically significant effects ([4]; extensive metabolizers (CYP2D6), 15 individuals): seven of seven; experimental pain model procedures with statistically significant effects ([4]; poor metabolizers (CYP2D6), 12 individuals): three of seven
